Assay results taken from patent EP0942906B1, “COMPOUNDS USEFUL FOR INHIBITION OF FARNESYL PROTEIN TRANSFERASE” (SCHERING CORPORATION, priority 1996, dated 1998).
Like-named read-outs stand apart in the source and are kept apart here.

What was measured:
Conditions in all cases: range stated for the listed group of compounds
[1] = molecular target: farnesyl protein transferase (Homo sapiens, UniProt P49354+P49356); assay: FPT IC50, inhibition of farnesyl protein transferase, in vitro enzyme assay (procedure of WO 95/10516); type: biochemical
farnesyl protein transferase, sequence (P49356 whole entry, one chain of several): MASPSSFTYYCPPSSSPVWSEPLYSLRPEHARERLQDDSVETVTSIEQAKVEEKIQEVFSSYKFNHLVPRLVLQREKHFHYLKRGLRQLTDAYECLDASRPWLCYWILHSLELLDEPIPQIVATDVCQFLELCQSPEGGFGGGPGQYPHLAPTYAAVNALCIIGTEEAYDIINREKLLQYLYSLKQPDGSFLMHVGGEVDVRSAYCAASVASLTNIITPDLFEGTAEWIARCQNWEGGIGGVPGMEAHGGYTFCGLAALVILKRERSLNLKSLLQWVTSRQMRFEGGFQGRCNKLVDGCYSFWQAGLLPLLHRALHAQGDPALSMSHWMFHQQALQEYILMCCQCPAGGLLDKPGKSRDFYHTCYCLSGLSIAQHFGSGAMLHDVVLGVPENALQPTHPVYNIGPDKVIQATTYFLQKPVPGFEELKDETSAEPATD
Experimental: (§1) FPT IC50 (inhibition of farnesyl protein transferase, in vitro enzyme assay) and COS Cell IC50 (Cell-Based Assay) were determined following the assay procedures described in WO 95/10516, published April 20, 1995. GGPT IC50 (inhibition of geranylgeranyl protein transferase, in vitro enzyme assay), Cell Mat Assay, and anti-tumor activity (in vivo anti-tumor studies) could be determined by the assay procedures described in WO 95/10516.

[2] = test system: COS Cell; assay: COS Cell IC50 (Cell-Based Assay, procedure of WO 95/10516)
Experimental: as §1

[3] = test system: Human tumor cells; assay: Soft Agar Assay (anchorage-independent growth, colony count after MTT staining); type: cell-based
Experimental: Anchorage-independent growth is a characteristic of tumorigenic cell lines. Human tumor cells are suspended in growth medium containing 0.3% agarose and an indicated concentration of a farnesyl transferase inhibitor. The solution is overlayed onto growth medium solidified with 0.6% agarose containing the same concentration of farnesyl transferase inhibitor as the top layer. After the top layer is solidified, plates are incubated for 10-16 days at 37°C under 5% CO2 to allow colony outgrowth. After incubation, the colonies are stained by overlaying the agar with a solution of MTT (3-[4,5-dimethylthiazol-2-yl]-2.5-diphenyltetrazolium bromide, Thiazolyl blue) (1 mg/mL in PBS). Colonies can be counted and the IC50's can be determined.

[4] = H-ras, read-out: FPT IC50 (H-ras)
[5] = k-ras, read-out: FPT IC50 (k-ras)
[6] = ras form not stated, read-out: FPT IC50

SMILES | IC50 [1, 4] | IC50 [1, 5] | IC50 [3] | IC50 [1, 6] | IC50 ([2]; read-out: Cos Cell IC50) | IC50 ([2]; read-out: Cos Cell)
CN(C)CC(=O)N1CCC(CC(=O)N2CCC(C3c4ncc(Br)cc4CCc4cc(Cl)cc(Br)c43)CC2)CC1 (single isomer, unassigned; (+)) [Compound 12.1] | 2 to 31.7 nM | 14.5 to 71.2 nM | ≥ 19.5 nM |  | 10 to 700 nM | 
O=C(OCc1ccccc1)c1cccn1CC(=O)N1CCC(CC(=O)N2CCC([C@H]3c4ncc(Br)cc4CCc4cc(Cl)cc(Br)c43)CC2)CC1 [Compound 55.0-B] |  |  | ≥ 19.5 nM | 0.7 to 18 nM |  | ≥ 9 nM
O=C(O)CCC(=O)N1CCC(CC(=O)N2CCC([C@H]3c4ncc(Br)cc4CCc4cc(Cl)cc(Br)c43)CC2)CC1 [Compound 18.0-B] | 2 to 31.7 nM | 14.5 to 71.2 nM | ≥ 19.5 nM | 0.7 to 18 nM |  | ≥ 9 nM
COC(=O)Cc1cn(CC(=O)N2CCC(CC(=O)N3CCC([C@H]4c5ncc(Br)cc5CCc5cc(Cl)cc(Br)c54)CC3)CC2)cn1 [Compound 56.0-B] |  |  | ≥ 19.5 nM | 0.7 to 18 nM |  | ≥ 9 nM
O=C(CC1CCN(C(=O)Cn2cnc3cccnc32)CC1)N1CCC([C@H]2c3ncc(Br)cc3CCc3cc(Cl)cc(Br)c32)CC1 [Compound 13.0-B] |  | 14.5 to 71.2 nM | ≥ 19.5 nM | 0.7 to 18 nM |  | ≥ 9 nM
O=C(O)CCCCC(=O)N1CCC(CC(=O)N2CCC([C@H]3c4ncc(Br)cc4CCc4cc(Cl)cc(Br)c43)CC2)CC1 [Compound 107.0-B] |  |  | ≥ 19.5 nM | 0.7 to 18 nM |  | ≥ 9 nM
CC(=O)C(=O)N1CCC(CC(=O)N2CCC([C@H]3c4ncc(Br)cc4CCc4cc(Cl)cc(Br)c43)CC2)CC1 [Compound 72.0-B] |  |  | ≥ 19.5 nM | 0.7 to 18 nM |  | ≥ 9 nM
O=C(CC1CCN(C(=O)CN2CCS(=O)(=O)CC2)CC1)N1CCC([C@H]2c3ncc(Br)cc3CCc3cc(Cl)cc(Br)c32)CC1 [Compound 6.0-B] |  | 14.5 to 71.2 nM | ≥ 19.5 nM | 0.7 to 18 nM |  | ≥ 9 nM
CC(C)(C)OC(=O)NCCCC(=O)N1CCC(CC(=O)N2CCC([C@H]3c4ncc(Br)cc4CCc4cc(Cl)cc(Br)c43)CC2)CC1 [Compound 89.0-B] |  |  | ≥ 19.5 nM | 0.7 to 18 nM |  | ≥ 9 nM
O=C(O)CCCCCC(=O)N1CCC(CC(=O)N2CCC([C@H]3c4ncc(Br)cc4CCc4cc(Cl)cc(Br)c43)CC2)CC1 [Compound 70.0-B] |  |  | ≥ 19.5 nM | 0.7 to 18 nM |  | ≥ 9 nM
O=C(O)CCCC(=O)N1CCC(CC(=O)N2CCC([C@H]3c4ncc(Br)cc4CCc4cc(Cl)cc(Br)c43)CC2)CC1 [Compound 19.0-B] |  |  | ≥ 19.5 nM | 0.7 to 18 nM |  | ≥ 9 nM
NC(=O)CC(=O)N1CCC(CC(=O)N2CCC([C@H]3c4ncc(Br)cc4CCc4cc(Cl)cc(Br)c43)CC2)CC1 [Compound 50.0-B] |  |  | ≥ 19.5 nM | 0.7 to 18 nM |  | ≥ 9 nM
O=C1NC(=O)C(CC(=O)N2CCC(CC(=O)N3CCC([C@H]4c5ncc(Br)cc5CCc5cc(Cl)cc(Br)c54)CC3)CC2)N1 (some centres unmarked) [Compound 77.0-B] |  |  | ≥ 19.5 nM | 0.7 to 18 nM |  | ≥ 9 nM
NCCC(=O)N1CCC(CC(=O)N2CCC([C@H]3c4ncc(Br)cc4CCc4cc(Cl)cc(Br)c43)CC2)CC1 [Compound 88.0-B] |  |  | ≥ 19.5 nM | 0.7 to 18 nM |  | ≥ 9 nM
CONC(=O)C(=O)N1CCC(CC(=O)N2CCC([C@H]3c4ncc(Br)cc4CCc4cc(Cl)cc(Br)c43)CC2)CC1 [Compound 49.0-B] |  |  | ≥ 19.5 nM | 0.7 to 18 nM |  | ≥ 9 nM
CCOC(=O)C[C@@H](CC(=O)N1CCC(CC(=O)N2CCC([C@H]3c4ncc(Br)cc4CCc4cc(Cl)cc(Br)c43)CC2)CC1)OC(C)=O [Compound 16.0-B] |  |  | ≥ 19.5 nM | 0.7 to 18 nM |  | ≥ 9 nM
O=C(O)CC(=O)N1CCC(CC(=O)N2CCC([C@H]3c4ncc(Br)cc4CCc4cc(Cl)cc(Br)c43)CC2)CC1 [Compound 14.0-B] |  |  | ≥ 19.5 nM | 0.7 to 18 nM |  | ≥ 9 nM

The next lines start with results.

IC50 [1, 4] | IC50 [1, 5] | IC50 [3] | IC50 [1, 6] | SMILES | IC50 ([2]; read-out: Cos Cell IC50) | IC50 ([2]; read-out: Cos Cell)
 |  | ≥ 19.5 nM | 0.7 to 18 nM | O=C(CO)N1CCC(CC(=O)N2CCC([C@H]3c4ncc(Br)cc4CCc4cc(Cl)cc(Br)c43)CC2)CC1 [Compound 37.0-B] |  | ≥ 9 nM
2 to 31.7 nM |  | ≥ 19.5 nM | 0.7 to 18 nM | O=C(CC1CCN(C(=O)CN2C(=O)CSC2=O)CC1)N1CCC([C@H]2c3ncc(Br)cc3CCc3cc(Cl)cc(Br)c32)CC1 [Compound 79.0-B] |  | ≥ 9 nM
 |  | ≥ 19.5 nM | 0.7 to 18 nM | O=C(CON=Cc1cc[n+]([O-])cc1)N1CCC(CC(=O)N2CCC(C3c4ncc(Br)cc4CCc4cc(Cl)cc(Br)c43)CC2)CC1 (centres unmarked) [Compound 22.0-B] |  | ≥ 9 nM
 |  | ≥ 19.5 nM | 0.7 to 18 nM | COC(=O)c1cccn1CC(=O)N1CCC(CC(=O)N2CCC([C@H]3c4ncc(Br)cc4CCc4cc(Cl)cc(Br)c43)CC2)CC1 [Compound 35.0-B] |  | ≥ 9 nM
2 to 31.7 nM |  | ≥ 19.5 nM |  | COC(=O)CCC(=O)N1CCC(CC(=O)N2CCC(C3c4ncc(Br)cc4CCc4cc(Cl)cc(Br)c43)CC2)CC1 (centres unmarked) [Compound 15.2] | 10 to 700 nM | 
 |  | ≥ 19.5 nM | 0.7 to 18 nM | N#CCC(=O)N1CCC(CC(=O)N2CCC([C@H]3c4ncc(Br)cc4CCc4cc(Cl)cc(Br)c43)CC2)CC1 [Compound 44.0-B] |  | ≥ 9 nM
2 to 31.7 nM | 14.5 to 71.2 nM | ≥ 19.5 nM |  | CN(C)CCC(=O)N1CCC(CC(=O)N2CCC(C3c4ncc(Br)cc4CCc4cc(Cl)cc(Br)c43)CC2)CC1 (single isomer, unassigned; (+)) [Compound 12.3] | 10 to 700 nM | 
 |  | ≥ 19.5 nM | 0.7 to 18 nM | CCOC(=O)c1c(C)ncn1CC(=O)N1CCC(CC(=O)N2CCC([C@H]3c4ncc(Br)cc4CCc4cc(Cl)cc(Br)c43)CC2)CC1 [Compound 53.0-B] |  | ≥ 9 nM
2 to 31.7 nM |  | ≥ 19.5 nM |  | COC(=O)C(=O)N1CCC(CC(=O)N2CCC([C@H]3c4ncc(Br)cc4CCc4cc(Cl)cc(Br)c43)CC2)CC1 [Compound 104.0-B] |  | ≥ 9 nM
 | 14.5 to 71.2 nM | ≥ 19.5 nM | 0.7 to 18 nM | Cc1nccn1CC(=O)N1CCC(CC(=O)N2CCC([C@H]3c4ncc(Br)cc4CCc4cc(Cl)cc(Br)c43)CC2)CC1 [Compound 10.0-B] |  | ≥ 9 nM
 |  | ≥ 19.5 nM | 0.7 to 18 nM | O=C(CC1CCN(C(=O)Cn2cnc([N+](=O)[O-])c2)CC1)N1CCC([C@H]2c3ncc(Br)cc3CCc3cc(Cl)cc(Br)c32)CC1 [Compound 26.0-B] |  | ≥ 9 nM
 |  | ≥ 19.5 nM | 0.7 to 18 nM | O=C(CON=Cc1ccccc1O)N1CCC(CC(=O)N2CCC(C3c4ncc(Br)cc4CCc4cc(Cl)cc(Br)c43)CC2)CC1 (centres unmarked) [Compound 95.0-B] |  | ≥ 9 nM
 |  | ≥ 19.5 nM | 0.7 to 18 nM | CC(C)(C)OC(=O)N1C[C@H](O)C[C@H]1C(=O)N1CCC(CC(=O)N2CCC([C@H]3c4ncc(Br)cc4CCc4cc(Cl)cc(Br)c43)CC2)CC1 [Compound 24.0-B] |  | ≥ 9 nM
 |  | ≥ 19.5 nM | 0.7 to 18 nM | O=C(O)c1cccn1CC(=O)N1CCC(CC(=O)N2CCC([C@H]3c4ncc(Br)cc4CCc4cc(Cl)cc(Br)c43)CC2)CC1 [Compound 52.0-B] |  | ≥ 9 nM
